Results taken from patent publication US10517244B2, “Method to develop herbicide-resistant sugar beet plants” (priority 2012, dated 2019).
Like-named read-outs stand apart in the source and are kept apart here.

How the values were obtained:
[1] = system: regenerated sugar beets having the mutated SEQ.ID.NO:3 (heterozygote); assay type: in vivo, sugar beet; conditions: Foramsulfuron 12.5 g/ha, amidosulfuron 15 g/ha, iodosulfuron 3.5 g/ha, thiencarbazone-methyl 7.5 g/ha, up to 3 applications
Text: (§1) The inventors compared the behaviour of regenerated sugar beets having the mutated SEQ.ID.NO:3 (heterozygote for this mutation) and a wild-type (naive) sugar beet commercial variety.

[2] = system: sugar beet plants where the proline at position 188 of the ALS enzyme is substituted by a serine (Line C); test: Greenhouse trial, damage (phytotoxicity) rating after ALS inhibitor treatment, Line C; assay type: in vivo, Beta vulgaris L. ssp. vulgaris; conditions: day 14 after application at stage BBCH 14; scale 0% no damage to 100% completely killed; g/ha per herbicide
Text: (§2) Uwe Meier, Biologische Bundesanstalt für Land und Forstwirtschaft. Subsequently, the resulting separate groups of sugar beet plants were each individually treated with an ALS inhibitor (ALS-in) in the amounts (g/ha) indicated in Table 2.
(§3) On day 14 after application of the respective ALS inhibitor, the damage (i.e. the phytotoxicity) for each sugar beet plant was rated on a scale from 0% (i.e. no damage, no phytotoxicity) to 100% (i.e. the plants were completely killed).

[3] = system: sugar beet plants comprising SEQ.ID.NO:3 and SEQ.ID.NO:5 on two different alleles (Line A); test: Greenhouse trial, damage (phytotoxicity) rating after ALS inhibitor treatment, Line A; assay type: in vivo, Beta vulgaris L. ssp. vulgaris
Protocol: Mutated sugar beet plants comprising SEQ.ID.NO:3 and SEQ.ID.NO:5 (on two different alleles) according to the present invention (as described in Example 4 above, “Line A”) were treated with different ALS inhibitors in direct comparison with sugar beet plants where the tryptophan at position 569 of the encoded ALS enzyme is substituted by a leucine (“Line B”), sugar beet plants described in WO 98/02527 where the proline at position 188 of the encoded ALS enzyme is substituted by a serine (“Line C”), and traditional variety (wild-type) sugar beet plants not having a mutation at positions 569 and 188 (“Line WT”).
Several groups of seeds of the four different mentioned sugar beet plants were sown separately in the greenhouse and grew up to stage BBCH 14 for Beta vulgaris L. ssp. vulgaris (i.e. 4 leaves (the second pair) unfolded) according to the monographie “Entwicklungsstadien mono-und dikotyler Pflanzen”, 2nd edition, 2001, ed. Uwe Meier, Biologische Bundesanstalt für Land und Forstwirtschaft. Subsequently, the resulting separate groups of sugar beet plants were each individually treated with an ALS inhibitor (ALS-in) in the amounts (g/ha) indicated in Table 2.
as §3
Additionally, typical early phenotypes of each sugar beet plants were inspected after treatment with a mixture comprising thiencarbazone-methyl and foramsulfuron.

[4] = system: dual mutant plant comprising SEQ.ID.NO:3 and SEQ.ID.NO:5 (NCIMB 42050); assay type: in vivo, sugar beet; conditions: even when put in composition with organic compounds; compatible with field application
Text: The inventors then developed a mutated sugar beet plant comprising SEQ.ID.NO:3 and SEQ.ID.NO:5 (on two different alleles). Such resulting dual mutant has been deposited under the Budapest Treaty under NCIMB 42050. A plant comprising both SEQ.ID.NO:3 and SEQ.ID.NO:5 can be generated by relying on several techniques, including, for instance, a subsequent mutagenesis step applied to the single mutant NCIMB 42051.
The inventors then compared the resistance of this dual mutant plant (a mutation in one allele at amino acid 569 and a mutation in the other allele at amino acid 188) with the single mutant (a mutation at position 569) sugar beet.

[5] = system: traditional variety (wild-type) sugar beet plants (Line WT); test: Greenhouse trial, damage (phytotoxicity) rating after ALS inhibitor treatment, Line WT; assay type: in vivo, Beta vulgaris L. ssp. vulgaris; conditions: day 14 after application at stage BBCH 14; scale 0% no damage to 100% completely killed; g/ha per herbicide
Text: as §2, §3

[6] = system: sugar beet plants where the tryptophan at position 569 of the ALS enzyme is substituted by a leucine (Line B); test: Greenhouse trial, damage (phytotoxicity) rating after ALS inhibitor treatment, Line B; assay type: in vivo, Beta vulgaris L. ssp. vulgaris; conditions: day 14 after application at stage BBCH 14; scale 0% no damage to 100% completely killed; g/ha per herbicide
Text: as §2, §3

[7] = system: wild-type (naive) sugar beet commercial variety; test: ALS inhibitor treatment of wild-type sugar beets (Example 3); assay type: in vivo; conditions: Foramsulfuron 12.5 g/ha, amidosulfuron 15 g/ha, iodosulfuron 3.5 g/ha, thiencarbazone-methyl 7.5 g/ha
Text: as §1

[8] = system: stomatal guard cell protoplasts; test: Protoplasts viability under mutagenesis treatment; assay type: cell-based, sugar beet; conditions: treatment of more than 0.2% EMS
Text: Possibly, this method further comprises the step of adding a mutagen agent to the culture of the isolated stomatal guard cell protoplasts.
Suitable mutagen agents are physical (such as UV or X-ray) exposure or exposure to chemical agents (such as Ethyl Methane Sulfonate (EMS), for instance at 0.05%, 0.1%, 0.15%, 0.2% or even at 2.5%).

[9] = system: homozygote 569/569 mutant sugar beet; conditions: WO 2012/049268; cited from earlier work
[10] = system: sugar beet mutant with proline at position 188 of ALS substituted by a serine; conditions: at the necessary dose rate; WO 98/02527 mutant; cited from earlier work
[11] = day 14 after application at stage BBCH 14, scale 0% no damage to 100% completely killed, g/ha per herbicide

Compound	resistance of the (heterozygote) mutated variety to the herbicide [1]	damage (phytotoxicity) average rating, Line C [2]	damage (phytotoxicity) average rating, Line A ([3]; in vivo)	resistance of the dual mutant plant line to the herbicide [4]	damage (phytotoxicity) average rating, Line WT [5]	damage (phytotoxicity) average rating, Line B [6]	damage (phytotoxicity) average rating, Line A [3, 11]	sensitivity of the wild-type (naive) plant to the herbicide [7]	protoplasts viability [8]	resistance of the (heterozygote) mutated variety to the herbicide ([1]; listed as foramsulfuron)	resistance of homozygote 569/569 mutant in field trials [9]	phytotoxicity in field trials on proline 188 serine mutant [10]
COc1cc(OC)nc(NC(=O)NS(=O)(=O)N(C)S(C)(=O)=O)n1 [Amidosulfuron]	same level of resistance	51.9%	6.3%	good resistance	73.1%	37.5%	–	–	–	–	–	–
COc1cc(OC)nc(Oc2cccc(Oc3nc(OC)cc(OC)n3)c2C(=O)[O-])n1.[Na+] [Bisbyribac-Na]	–	71.7%	–	–	80.0%	38.1%	17.5%	–	–	–	–	–
COC(=O)c1csc(C)c1S(=O)(=O)NC(=O)n1nc(OC)n(C)c1=O [Thiencarbazone-methyl]	about the same level of resistance as for iodosulfuron	37.5%	–	good resistance	84.4%	35.6%	8.1%	very sensitive	–	–	–	–
COc1cc(OC)n2nc(S(=O)(=O)Nc3c(Cl)ccc(C)c3Cl)nc2n1 [Metosulam]	–	69.4%	–	–	79.4%	40.6%	13.1%	–	–	–	–	–
CCOS(C)(=O)=O [EMS, Ethyl Methane Sulfonate]	–	–	–	–	–	–	–	–	detrimentally affected	–	–	–
COc1cc(OC)nc(NC(=O)NS(=O)(=O)c2cc(NC=O)ccc2C(=O)N(C)C)n1 [Foramsulfuron]	good resistance	77.5%	–	–	80.0%	45.6%	26.9%	–	–	best resistance	good resistance	some phytotoxicity
